Laboratory results from patent US20120171121A1, “Rosette Nanotubes as Drug Delivery Agents” (Brown University, priority 2011, published 2012).
“Also recorded” adds a separate entry of the source.

Test: Solubility observations in D2O / water
Type: physicochemical
Method: The supernatants were characterized by DOSY NMR and UV-Vis. ^1H-NMR was used to observe the amount of drug loaded into the RNTs at various time points. All the NMR experiments were conducted on a Varian Direct Drive 600 MHz spectrometer with a dual broadband probe. UV-vis spectra were recorded on an Agilent 8453. After this series of spectral analyses were completed, CD3OD was evaporated using a stream of nitrogen and replaced with the same volume of deuterated water (D2O).
Each solution (3 mL) was placed in a 1 cm×1 cm cuvette for UV-Vis experiments. In another series of experiments the solutions were prepared at the same concentration in D2O and analyzed by UV-Vis spectroscopy.

Compound: C[C@@H]1C[C@H]2[C@@H]3CCC4=CC(=O)C=C[C@]4(C)[C@@]3(F)[C@@H](O)C[C@]2(C)[C@@]1(O)C(=O)CO [DEX, dexamethasone]
- solubility in water: insoluble; also recorded: precipitates in water
